Measurements taken from patent US9309221B2, “1-substituted indazole derivative” (Dainippon Sumitomo Pharma Co., Ltd., priority 2012, dated 2016).

What follows are compounds tested against T1, human α7 nAChR (Homo sapiens, UniProt P36544) (assay: Evaluation of PAM activity with human α7 nACh receptor stably expressing cells (aequorin luminescence, FDSS7000)). Conditions: ratio of RLU (Max-Min) of test wells to control wells, ACh at EC20.
T1 construct: expressed in transfected cells; host or cells: GH4C1 cells (rat pituitary, ATCC CCL-82.2)
Type: cell-based
Source text: Evaluation of PAM Activity with Human α7 nACh Receptor Stably Expressing Cells
(1) Human α7 nAChR stably expressing cells
Human α7 nAChR stably expressing cells were generated and cultured. In detail, GH4C1 cells derived from rat pituitary (cat#CCL-82.2, ATCC, USA) were used as a host cell. PcDNA3.1Zeo vector containing a nucleotide sequence encoding a protein GenBank BAC81731 and pcDNA3.1 vector containing human α7 nAChR gene (cat#V790-20, invitrogen, Carlsbad, Calif., USA) were transfected to the cells to give aequorins and human α7 nAChR stably expressing cells respectively. The aequorins and human α7 nAChR stably expressing cells were screened with Zeocin (cat#R25001, invitrogen, Carlsbad, Calif., USA) and Geneticin (cat#10131-027, invitrogen, Carlsbad, Calif., USA) respectively.
The cells were cultured in F-10 Nutrient Mixture (Ham) medium (cat#11550-043, invitrogen, Carlsbad, Calif., USA) containing 2.5% fetal bovine serum (cat#2917354, ICN Biomedicals, Inc, USA), 15% inactivated horse serum (cat#26050-088, invitrogen, Carlsbad, Calif., USA), 1 μg/mL Geneticin, and 5 μg/mL Puromycin (cat#14861-84, invitrogen, Carlsbad, Calif., USA), in a Collagen Type 1-coated dish (cat#4030-010, iwaki, Tokyo, Japan). During the culture, the medium was replaced with fresh medium in every 2 to 3 days, and the cells were treated with TrypLE Express (cat#45604-021, invitrogen, Carlsbad, Calif., USA) to collect them in every 7 days. Thus, the cells were subcultured.
7 Days after subculturing, the cells were treated with TrypLE Express to collect them when they were about 80% confluent. The cells were suspended in a reaction medium containing Hanks (cat#14065-056, invitrogen, Carlsbad, Calif., USA)/20 mmol/L Hepes (cat#15630-080, invitrogen, Carlsbad, Calif., USA), Buffer (pH 7.4), F-10 Nutrient Mixture (Ham), and 0.1 mg/mL Geneticin, and the suspension was seeded in a 384-well plate (cat#781090, Greiner, Germany) at 20000 cells/25 μL per well.
On the next day after seeding, Viviren (cat#E649X, Promega, Madison, Wis., USA) was added to the medium so that the final concentration could be 4 μmol/L (15 μL/well). The plates were centrifuged and then placed in the dark for 4 hours at room temperature.
(2) Preparation of the Test Samples
Each of the test compounds was dissolved in DMSO to prepare each test sample at a concentration of 1000-fold the final concentration. To the solution was added Hanks/20 mM HEPES/0.2% BSA (cat#A3803, Sigma, St. Louis, Mo., USA), and the concentration was adjusted to 6-fold the final concentration.
(3) Evaluation of PAM Activity
FDSS7000 (Hamamatsu Photonics) was used to detect the luminescence signal evoked by α7 nAChR stimulation. The cells and a luminescent substrate were put on a plate, and the test sample was added thereto. […] After the addition of ACh, the luminescence signal (the central wavelength: 465 nm) was measured for 138 seconds to calculate RLU (Max-Min). The ratio of the RLU (Max-Min) of the test-compound-containing wells to that of the control wells was defined as PAM activity.

T1 sequence (P36544 23-502): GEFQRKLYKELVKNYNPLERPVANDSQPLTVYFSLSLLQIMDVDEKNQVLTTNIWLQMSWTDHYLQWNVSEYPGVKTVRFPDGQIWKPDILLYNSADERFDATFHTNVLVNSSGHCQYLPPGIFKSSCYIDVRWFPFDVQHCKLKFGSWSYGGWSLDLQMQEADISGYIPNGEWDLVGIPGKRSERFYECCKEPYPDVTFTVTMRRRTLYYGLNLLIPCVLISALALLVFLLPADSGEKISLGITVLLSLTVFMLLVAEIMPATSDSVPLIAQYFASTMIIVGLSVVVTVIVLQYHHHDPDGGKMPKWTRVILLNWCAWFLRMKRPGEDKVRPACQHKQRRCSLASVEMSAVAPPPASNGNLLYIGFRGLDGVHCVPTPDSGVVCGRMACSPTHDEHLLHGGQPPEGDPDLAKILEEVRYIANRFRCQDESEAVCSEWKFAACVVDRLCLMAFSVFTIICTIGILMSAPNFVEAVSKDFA

| PAM activity for α7 nAChR (in words) | Compound |
| --- | --- |
| stronger PAM activity than others | Cc1ccc2c(cnn2C2CCN(C(=O)NC3CCCCC3)CC2)c1 [Example 8, N-cyclohexyl-4-(5-methyl-1H-indazol-1-yl)piperidine-1-carboxamide] |
| stronger PAM activity than others | CCc1ccc2c(cnn2C2CCN(C(=O)NC3CCCC3)CC2)c1 [Example 20] |
| stronger PAM activity than others | CCc1ccc2c(cnn2[C@H]2CC[C@@H](NC(=O)C3CCCCC3)CC2)c1 [Example 119] |
| stronger PAM activity than others | CCc1ccc2c(cnn2[C@H]2CC[C@@H](NC(=O)C3CCC(F)(F)CC3)CC2)c1 [Example 4, N-(cis-4-(5-ethyl-1H-indazol-1-yl)cyclohexyl)-4,4-difluorocyclohexanecarboxamide] |
| stronger PAM activity than others | COCC1CCC(NC(=O)N2CCC(n3ncc4cc(C)ccc43)CC2)CC1 (centres unmarked) [Example 220] |
| stronger PAM activity than others | Cc1ccc2c(cnn2C2CCN(C(=O)NC3CCC(F)(F)CC3)CC2)c1 [Example 13, N-(4,4-difluorocyclohexyl)-4-(5-methyl-1H-indazol-1-yl)piperidine-1-carboxamide] |
| stronger PAM activity than others | COc1ccc2c(cnn2C2CCN(C(=O)NC3CCC(F)(F)CC3)CC2)c1 [Example 41, N-(4,4-difluorocyclohexyl)-4-(5-methoxy-1H-indazol-1-yl)piperidine-1-carboxamide] |
| stronger PAM activity than others | CCOc1ccc2c(cnn2C2CCN(C(=O)NC3CCCCC3)CC2)c1 [Example 18, N-cyclohexyl-4-(5-ethoxy-1H-indazol-1-yl)piperidine-1-carboxamide] |
| stronger PAM activity than others | COc1ccc2c(cnn2C2CCN(C(=O)NC3CCCCC3)CC2)c1 [Example 40] |

| Compound | PAM activity for α7 nAChR (in words) |
| --- | --- |
| CCc1ccc2c(cnn2C2CCN(C(=O)NC3CCC(F)(F)CC3)CC2)c1 [Example 23] | stronger PAM activity than others |

Same assay, conditions: test compound 10 μmol/L; ACh at EC20; ratio of RLU (Max-Min) of test-compound wells to control wells; human α7 nAChR expressing GH4C1 cells

| α7PAM (%) @ 10 μmol/L [%] | Compound |
| --- | --- |
| 380 | O=C(NC1CCOCC1)N1CCC(n2ncc3c(OC(F)(F)F)cccc32)CC1 [Example 304] |
| 1368 | CCc1ccc2c(cnn2[C@H]2CC[C@@H](NC(=O)NC3CCC(F)(F)CC3)CC2)c1 [Example 5, 1-(4,4-difluorocyclohexyl)-3-(cis-4-(5-ethyl-1H-indazol-1-yl)cyclohexyl)urea] |
| 220 | O=C(Nc1ccc(C(F)(F)F)nc1)N1CCC(n2ncc3cc(C4CC4)ccc32)CC1 [Example 187] |
| 370 | O=C(NC1CCC(F)(F)CC1)N1CCC(n2ncc3c(OC(F)F)cccc32)CC1 [Example 201] |
| 3053 | Cc1ccc2c(cnn2C2CCN(C(=O)NC3CCCCC3)CC2)c1 [Example 8, N-cyclohexyl-4-(5-methyl-1H-indazol-1-yl)piperidine-1-carboxamide] |
| 210 | CO[C@H]1CC[C@H](NC(=O)N2CCC(n3ncc4cc(-c5ccc(F)cc5)ccc43)CC2)CC1 [Example 155] |
| 1034 | CO[C@H]1CCC[C@H](NC(=O)N2CCC(n3ncc4cc(C5CC5)ccc43)CC2)C1 [Example 211, 4-(5-cyclopropyl-1H-indazol-1-yl)-N-[(1S,3S)-3-methoxycyclohexyl]piperidine-1-carboxamide] |
| 1433 | CO[C@H]1CC[C@H](NC(=O)N2CCC(n3ncc4cc(OC(F)F)ccc43)CC2)CC1 [Example 291, 4-[5-(difluoromethoxy)-1H-indazol-1-yl]-N-(trans-4-methoxycyclohexyl)piperidine-1-carboxamide] |
| 190 | O=C(C1CCOCC1)N1CCC(n2ncc3cc(F)ccc32)CC1 [Example 104] |
| 430 | COCc1nn(C2CCN(C(=O)NC3CCCCC3)CC2)c2ccc(C)cc12 [Example 68] |
| 1463 | O=C(NC1CCC(F)(F)CC1)N1CCC(n2ncc3cc(OC4CC4)ccc32)CC1 [Example 249, 4-[5-(cyclopropoxy)-1H-indazol-1-yl]-N-(4,4-difluorocyclohexyl)piperidine-1-carboxamide] |
| 1425 | CCc1ccc2c(cnn2C2CCN(C(=O)NC3CCCOC3)CC2)c1 (centres unmarked) [Example 22, 4-(5-ethyl-1H-indazol-1-yl)-N-(tetrahydro-2H-pyran-3-yl)piperidine-1-carboxamide] |
| 480 | CO[C@H]1CC[C@H](NC(=O)N2CCC(n3ncc4c(C)c(C)ccc43)CC2)CC1 [Example 225] |
| 360 | COc1c(C(F)(F)F)ccc2c1cnn2C1CCN(C(=O)NC2CCC(OC)CC2)CC1 (centres unmarked) [Example 317] |
| 2344 | CCc1ccc2c(cnn2[C@H]2CC[C@@H](NC(=O)C3CCC(F)(F)CC3)CC2)c1 [Example 4, N-(cis-4-(5-ethyl-1H-indazol-1-yl)cyclohexyl)-4,4-difluorocyclohexanecarboxamide] |
| 1025 | CCCc1ccc2c(cnn2C2CCN(C(=O)NC3CCOCC3)CC2)c1 [Example 15, 4-(5-propyl-1H-indazol-1-yl)-N-(tetrahydro-2H-pyran-4-yl)piperidine-1-carboxamide] |
| 89 | COC1CCC(NC(=O)N2CCC(n3ncc4c(Br)cccc43)CC2)CC1 (centres unmarked) [Example 98] |

| α7PAM (%) @ 10 μmol/L [%] | Compound |
| --- | --- |
| 410 | CCc1ccc2c(cnn2[C@H]2CC[C@@H](NC(=O)[C@H]3CC[C@H](OC)CC3)CC2)c1 [Example 122] |
| 200 | CCOc1cccc2c1cnn2C1CCN(C(=O)N[C@H]2CC[C@@H](OC)CC2)CC1 [Example 184] |
| 420 | CCCc1ccc2c(cnn2C2CCN(C(=O)NC3CCC(OC)CC3)CC2)c1 (centres unmarked) [Example 76] |
| 1673 | CCOc1ccc2c(cnn2C2CCN(C(=O)NC3CCC(F)(F)CC3)CC2)c1 [Example 27, N-(4,4-difluorocyclohexyl)-4-(5-ethoxy-1H-indazol-1-yl)piperidine-1-carboxamide] |
| 1064 | Cc1ccc2c(cnn2C2CCN(C(=O)N[C@H]3CCCCC3(F)F)CC2)c1 [Example 79, (S)—N-(2,2-difluorocyclohexyl)-4-(5-methyl-1H-indazol-1-yl)piperidine-1-carboxamide] |
| 1096 | CCc1ccc2c(cnn2C2CCN(C(=O)N[C@H]3CC[C@H](OC)CC3)CC2)c1OC [Example 255, 4-(5-ethyl-4-methoxy-1H-indazol-1-yl)-N-(trans-4-methoxycyclohexyl)piperidine-1-carboxamide] |
| 1033 | Cc1ccc2c(cnn2C2CCN(C(=O)N[C@H]3CCCC3(F)F)CC2)c1 [Example 80, (S)—N-(2,2-difluorocyclopentyl)-4-(5-methyl-1H-indazol-1-yl)piperidine-1-carboxamide] |
| 3399 | Cc1ccc2c(cnn2C2CCN(C(=O)NC3CCC(F)(F)CC3)CC2)c1 [Example 13, N-(4,4-difluorocyclohexyl)-4-(5-methyl-1H-indazol-1-yl)piperidine-1-carboxamide] |
| 420 | Cc1ccc2c(cnn2C2CCN(C(=O)NC3CCC(OCC(F)(F)F)CC3)CC2)c1 (centres unmarked) [Example 83] |
| 1133 | CCc1cccc2c1cnn2C1CCN(C(=O)NC2CCC(F)(F)CC2)CC1 [Example 64, N-(4,4-difluorocyclohexyl)-4-(4-ethyl-1H-indazol-1-yl)piperidine-1-carboxamide] |
| 3749 | COc1ccc2c(cnn2C2CCN(C(=O)NC3CCC(F)(F)CC3)CC2)c1 [Example 41, N-(4,4-difluorocyclohexyl)-4-(5-methoxy-1H-indazol-1-yl)piperidine-1-carboxamide] |
| 340 | O=C(NC1CCOCC1)N1CCC(n2ncc3cc(C(F)(F)F)ccc32)CC1 [Example 297] |
| 1764 | CCc1ccc2c(cnn2C2CCN(C(=O)N[C@H]3CC[C@H](OC)CC3)CC2)c1 [Example 16, 4-(5-ethyl-1H-indazol-1-yl)-N-(trans-4-methoxycyclohexyl)piperidine-1-carboxamide] |
| 1202 | CC(C)Oc1ccc2c(cnn2C2CCN(C(=O)NC3CCCCC3)CC2)c1 [Example 48, N-cyclohexyl-4-(5-isopropoxy-1H-indazol-1-yl)piperidine-1-carboxamide] |
| 6779 | CCOc1ccc2c(cnn2C2CCN(C(=O)NC3CCCCC3)CC2)c1 [Example 18, N-cyclohexyl-4-(5-ethoxy-1H-indazol-1-yl)piperidine-1-carboxamide] |
| 860 | COC(C)c1c(C)ccc2c1cnn2C1CCN(C(=O)NC2CCC(F)(F)CC2)CC1 (centres unmarked) [Example 232] |
| 800 | COCc1c(C)ccc2c1cnn2C1CCN(C(=O)NC2CCC(F)(F)CC2)CC1 [Example 213] |
